The results in this text go back to patent publication US20240059682A1, “THYROID HORMONE RECEPTOR BETA AGONIST COMPOUNDS” (Terns Pharmaceuticals, Inc., priority 2021, published 2024).

This test has as its target THR-β/RXR-α (Homo sapiens (Human), UniProt P10828). Kind of test: THR/RXR heterodimer assay (THR-β/RXR-α). In kind it is biochemical. The following applies: RXR heterodimer assay; normalized to T3 activity.

Sequence of THR-β/RXR-α (P10828 202-461): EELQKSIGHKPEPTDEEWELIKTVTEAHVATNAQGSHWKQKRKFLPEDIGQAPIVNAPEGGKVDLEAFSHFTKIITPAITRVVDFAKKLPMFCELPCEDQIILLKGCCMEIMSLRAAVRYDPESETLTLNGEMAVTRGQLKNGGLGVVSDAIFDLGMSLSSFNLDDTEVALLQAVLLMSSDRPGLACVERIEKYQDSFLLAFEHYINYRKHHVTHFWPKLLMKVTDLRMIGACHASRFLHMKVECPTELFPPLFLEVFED
Sequence of THR-β/RXR-α (P19793 225-462 partner): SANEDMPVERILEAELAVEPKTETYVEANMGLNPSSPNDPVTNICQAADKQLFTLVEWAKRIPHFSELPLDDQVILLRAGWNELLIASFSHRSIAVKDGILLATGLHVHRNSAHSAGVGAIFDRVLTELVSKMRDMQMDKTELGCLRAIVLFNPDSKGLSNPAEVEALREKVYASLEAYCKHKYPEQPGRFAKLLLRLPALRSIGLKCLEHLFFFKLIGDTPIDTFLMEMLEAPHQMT
Sequence of THR-β/RXR-α (Q15596 679-703 partner): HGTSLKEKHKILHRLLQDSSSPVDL

Take `O=C(Nc1cc(Cl)c(Oc2ccc3[nH]c(=O)n(C4CC4)c3c2)c(Cl)c1)c1noc(=O)[nH]1` [Example 1, N-(3,5-dichloro-4-((3-cyclopropyl-2-oxo-2,3-dihydro-1H-benzo[d]imidazol-5-yl)oxy)phenyl)-5-oxo-4,5-dihydro-1,2,4-oxadiazole-3-carboxamide]: the THRß-Selectivity was 5.1.
On to `CC(C)(C)n1c(=O)[nH]c2ccc(Oc3c(Cl)cc(NC(=O)c4noc(=O)[nH]4)cc3Cl)cc21` [Example 10, N-(4-((3-(tert-butyl)-2-oxo-2,3-dihydro-1H-benzo[d]imidazol-5-yl)oxy)-3,5-dichlorophenyl)-5-oxo-4,5-dihydro-1,2,4-oxadiazole-3-carboxamide], for which the THRß-Selectivity is 7.7.
`CC(C)n1c(=O)[nH]c2ccc(Oc3c(Cl)cc(-n4nc(C#N)c(=O)[nH]c4=O)cc3Cl)cc21` [Example 5, 2-(3,5-dichloro-4-((3-isopropyl-2-oxo-2,3-dihydro-1H-benzo[d]imidazol-5-yl)oxy)phenyl)-3,5-dioxo-2,3,4,5-tetrahydro-1,2,4-triazine-6-carbonitrile] yielded a THRß-Selectivity of 5.8.
For the compound `COc1nc2ccc(Oc3c(Cl)cc(-n4nc(C#N)c(=O)[nH]c4=O)cc3Cl)cc2n1C(C)(C)C` [Example 15, 2-(4-((1-(tert-butyl)-2-methoxy-1H-benzo[d]imidazol-6-yl)oxy)-3,5-dichlorophenyl)-3,5-dioxo-2,3,4,5-tetrahydro-1,2,4-triazine-6-carbonitrile], the THRß-Selectivity turned out to be 10.3.
Consider `COc1nc2ccc(Oc3c(Cl)cc(-n4nc(C#N)c(=O)[nH]c4=O)cc3Cl)cc2n1C1CC1` [Example 2, 2-(3,5-dichloro-4-((1-cyclopropyl-2-methoxy-1H-benzo[d]imidazol-6-yl)oxy)phenyl)-3,5-dioxo-2,3,4,5-tetrahydro-1,2,4-triazine-6-carbonitrile], for which the THRß-Selectivity amounted to 16.9.
In turn, `COc1nc2ccc(Oc3c(Cl)cc(NC(=O)c4noc(=O)[nH]4)cc3Cl)cc2n1C(C)C` [Example 6, N-(3,5-dichloro-4-((1-isopropyl-2-methoxy-1H-benzo[d]imidazol-6-yl)oxy)phenyl)-5-oxo-4,5-dihydro-1,2,4-oxadiazole-3-carboxamide] came in with a THRß-Selectivity of 16.9.
`N#Cc1nn(-c2cc(Cl)c(Oc3ccc4[nH]c(=O)n(C5CC5)c4c3)c(Cl)c2)c(=O)[nH]c1=O` [Example 8, 2-(3,5-dichloro-4-((3-cyclopropyl-2-oxo-2,3-dihydro-1H-benzo[d]imidazol-5-yl)oxy)phenyl)-3,5-dioxo-2,3,4,5-tetrahydro-1,2,4-triazine-6-carbonitrile] had a THRß-Selectivity of 7.2.
On to `COc1nc2ccc(Oc3c(Cl)cc(NC(=O)c4noc(=O)[nH]4)cc3Cl)cc2n1C1(C)CC1` [Example 11, N-(3,5-dichloro-4-((2-methoxy-1-(1-methylcyclopropyl)-1H-benzo[d]imidazol-6-yl)oxy)phenyl)-5-oxo-4,5-dihydro-1,2,4-oxadiazole-3-carboxamide], for which the THRß-Selectivity was determined as 17.7.
Turning to `CC1(n2c(=O)[nH]c3ccc(Oc4c(Cl)cc(NC(=O)c5noc(=O)[nH]5)cc4Cl)cc32)CC1` [Example 13, N-(3,5-dichloro-4-((3-(1-methylcyclopropyl)-2-oxo-2,3-dihydro-1H-benzo[d]imidazol-5-yl)oxy)phenyl)-5-oxo-4,5-dihydro-1,2,4-oxadiazole-3-carboxamide], the THRß-Selectivity is reported as 11.0.
For `N#Cc1nn(-c2cc(Cl)c(Oc3ccc4[nH]c(=O)n(C5(C(F)F)CC5)c4c3)c(Cl)c2)c(=O)[nH]c1=O` [Example 18, 2-(3,5-dichloro-4-((3-(1-(difluoromethyl)cyclopropyl)-2-oxo-2,3-dihydro-1H-benzo[d]imidazol-5-yl)oxy)phenyl)-3,5-dioxo-2,3,4,5-tetrahydro-1,2,4-triazine-6-carbonitrile], the THRß-Selectivity is 8.2.
